Source: patent US11149030B2, “Plants having increased tolerance to herbicides” (BASF AGRO B.V., priority 2016, dated 2021)
Where “and” joins values, the source holds several entries; their conditions need not be identical. Equal values may be shown once.

Assays:
[1] = test system: T2 soybean events expressing the indicated Amaranthus PPO2 variant transgene; assay: Soybean PPO inhibitor tolerance testing, injury score (Table C); assay type: in vivo, Soybean cv Jake; details: V2 stage, 3 days after treatment, individual plants
Description: Soybean cv Jake is transformed as previously described by Siminszky et al., Phytochem Rev. 5:445-458 (2006). After regeneration, transformants are transplanted to soil in small pots, placed in growth chambers (16 hr day/8 hr night; 25° C. day/23° C. night; 65% relative humidity; 130-150 microE m-2 s-1) and subsequently tested for the presence of the T-DNA via Taqman analysis. After a few weeks, healthy, transgenic positive, single copy events are transplanted to larger pots and allowed to grow in the growth chamber. An optimal shoot for cutting is about 3-4 inches tall, with at least two nodes present. Each cutting is taken from the original transformant (mother plant) and dipped into rooting hormone powder (indole-3-butyric acid, IBA). The cutting is then placed in oasis wedges inside a bio-dome. The mother plant is taken to maturity in the greenhouse and harvested for seed. Wild type cuttings are also taken simultaneously to serve as negative controls. The cuttings are kept in the bio-dome for 5-7 days and then transplanted to 3 inch pots and then acclimated in the growth chamber for two more days. Subsequently, the cuttings are transferred to the greenhouse, acclimated for approximately 4 days prior to spray. […] g ai/ha saflufenacil plus 1% MSO and/or 25-200 g ai/ha 1,5-dimethyl-6-thioxo-3-(2,2,7-trifluoro-3-oxo-4-(prop-2-ynyl)-3,4-dihydro-2H-benzo[b][1,4]oxazin-6-yl)-1,3,5-triazinane-2,4-dione (CAS 1258836-72-4) plus 1% MSO. Other PPO inhibiting herbicides are also tested in a similar fashion for confirming cross resistance: flumioxazin, butafenacil, acifluorfen, lactofen, bifenox, sulfentrazone, methyl 2-[2-chloro-5-[3-chloro-5-(trifluoromethyl)-2-pyridyl]-4-fluoro-phenoxy]-2-methoxy-acetate, ethyl 2-[2-chloro-5-[3-chloro-5-(trifluoromethyl)-2-pyridyl]-4-fluoro-phenoxy]-2-methoxy-acetate, prop-2-ynyl 2-[2-chloro-5-[3-chloro-5-(trifluoromethyl)-2-pyridyl]-4-fluoro-phenoxy]-2-methoxy-acetate and photosynthesis inhibitor diuron as negative control. […]
The following gives a definition of the injury scores measured above: […]

[2] = test system: T2 maize events expressing the indicated Amaranthus PPO2 variant transgene; assay: Maize whole plant PPO inhibitor tolerance testing, injury 0-9 point scale (Table B); assay type: in vivo; details: V2 stage, 3 days after treatment, individual plants
Description: Immature embryos are transformed according to the procedure outlined in Peng et al. (WO2006/136596). Plants are tested for the presence of the T-DNA by Taqman analysis with the target being the nos terminator which is present in all constructs. Healthy looking plants are sent to the greenhouse for hardening and subsequent spray testing. The plants are individually transplanted into MetroMix 360 soil in 4″ pots. Once in the greenhouse (day/night cycle of 27° C./21° C. with 14 hour day length supported by 600 W high pressure sodium lights), they are allowed to grow for 14 days. […] 200 g ai/ha saflufenacil+1.0% v/v methylated seed oil (MSO) and/or 25-200 g ai/ha 1,5-dimethyl-6-thioxo-3-(2,2,7-trifluoro-3-oxo-4-(prop-2-ynyl)-3,4-dihydro-2H-benzo[b][1,4]oxazin-6-yl)-1,3,5-triazinane-2,4-dione (CAS 1258836-72-4) plus 1% MSO. Other PPO inhibiting herbicides are also tested in a similar fashion for confirming cross resistance: flumioxazin, butafenacil, acifluorfen, lactofen, bifenox, sulfentrazone, methyl 2-[2-chloro-5-[3-chloro-5-(trifluoromethyl)-2-pyridyl]-4-fluoro-phenoxy]-2-methoxy-acetate, ethyl 2-[2-chloro-5-[3-chloro-5-(trifluoromethyl)-2-pyridyl]-4-fluoro-phenoxy]-2-methoxy-acetate, prop-2-ynyl 2-[2-chloro-5-[3-chloro-5-(trifluoromethyl)-2-pyridyl]-4-fluoro-phenoxy]-2-methoxy-acetate and photosynthesis inhibitor diuron as negative control. […] […] The top survivors are transplanted into gallon pots filled with Metro Mix 360 for seed production.

With `COC(=O)C(OC)Oc1cc(-c2ncc(C(F)(F)F)cc2Cl)c(F)cc1Cl` (centres unmarked) [methyl 2-[2-chloro-5-[3-chloro-5-(trifluoromethyl)-2-pyridyl]-4-fluoro-phenoxy]-2-methoxy-acetate] the “injury on a 0-9 point scale” value ([1]; soybean T2, transgene L397E_F420M, 25 g ai/ha + 1% v/v MSO) was 1, the “injury on a 0-9 point scale” value ([1]; soybean T2, transgene L397E_F420M, 50 g ai/ha + 1% v/v MSO) was 3 and 4 and the “injury on a 0-9 point scale” value ([1]; soybean T2, transgene L397E_F420M, 100 g ai/ha + 1% v/v MSO) was 3 and 4 and 9. The “injury on a 0-9 point scale” value ([1]; soybean T2, transgene L397E_F420M, 200 g ai/ha + 1% v/v MSO) was 3 (2×) and 4, the “injury on a 0-9 point scale” value ([1]; soybean T2, transgene L397Q_F420M, 25 g ai/ha + 1% v/v MSO) was 1 and 0 and 9 and the “injury on a 0-9 point scale” value ([1]; soybean T2, transgene L397Q_F420M, 50 g ai/ha + 1% v/v MSO) was 9 and 1. For the same compound, the “injury on a 0-9 point scale” value ([1]; soybean T2, transgene L397Q_F420M, 100 g ai/ha + 1% v/v MSO) was 3, the “injury on a 0-9 point scale” value ([1]; soybean T2, transgene L397Q_F420M, 200 g ai/ha + 1% v/v MSO) was 3 and 9 and 4 and the “injury on a 0-9 point scale” value ([1]; soybean T2, transgene R128A_F420I event 1, 25 g ai/ha + 1% v/v MSO) was 0. The “injury on a 0-9 point scale” value ([1]; soybean T2, transgene R128A_F420I event 1, 50 g ai/ha + 1% v/v MSO) was 1 and 2 (2×), the “injury on a 0-9 point scale” value ([1]; soybean T2, transgene R128A_F420I event 1, 100 g ai/ha + 1% v/v MSO) was 2 (2×) and 3 and the “injury on a 0-9 point scale” value ([1]; soybean T2, transgene R128A_F420I event 1, 200 g ai/ha + 1% v/v MSO) was 4 (2×) and 3. The “injury on a 0-9 point scale” value ([1]; soybean T2, transgene R128A_F420I event 2, 25 g ai/ha + 1% v/v MSO) was 0 and 9, the “injury on a 0-9 point scale” value ([1]; soybean T2, transgene R128A_F420I event 2, 50 g ai/ha + 1% v/v MSO) was 3 (2×) and 4 and the “injury on a 0-9 point scale” value ([1]; soybean T2, transgene R128A_F420I event 2, 100 g ai/ha + 1% v/v MSO) was 1 and 3. For the same compound, the “injury on a 0-9 point scale” value ([1]; soybean T2, transgene R128A_F420I event 2, 200 g ai/ha + 1% v/v MSO) was 5 (2×) and 4, the “injury on a 0-9 point scale” value ([1]; soybean T2, transgene R128A_F420I event 3, 25 g ai/ha + 1% v/v MSO) was 0 and the “injury on a 0-9 point scale” value ([1]; soybean T2, transgene R128A_F420I event 3, 50 g ai/ha + 1% v/v MSO) was 1 and 2 and 0. The “injury on a 0-9 point scale” value ([1]; soybean T2, transgene R128A_F420I event 3, 100 g ai/ha + 1% v/v MSO) was 1 and 3, the “injury on a 0-9 point scale” value ([1]; soybean T2, transgene R128A_F420I event 3, 200 g ai/ha + 1% v/v MSO) was 4 and the “injury on a 0-9 point scale” value ([1]; soybean T2, transgene R128A_F420V, 25 g ai/ha + 1% v/v MSO) was 2 and 1. The “injury on a 0-9 point scale” value ([1]; soybean T2, transgene R128A_F420V, 50 g ai/ha + 1% v/v MSO) was 4 and 9, the “injury on a 0-9 point scale” value ([1]; soybean T2, transgene R128A_F420V, 100 g ai/ha + 1% v/v MSO) was 4 and the “injury on a 0-9 point scale” value ([1]; soybean T2, transgene R128A_F420V, 200 g ai/ha + 1% v/v MSO) was 9 and 4 and 5. For the same compound, the “injury on a 0-9 point scale” value ([1]; soybean, Non transgenic, 25 g ai/ha + 1% v/v MSO) was 9 (2×) and 8, the “injury on a 0-9 point scale” value ([1]; soybean, Non transgenic, 50 g ai/ha + 1% v/v MSO) was 9 and the “injury on a 0-9 point scale” value ([1]; soybean, Non transgenic, 100 g ai/ha + 1% v/v MSO) was 9. For the same compound, the “injury on a 0-9 point scale” value ([1]; soybean, Non transgenic, 200 g ai/ha + 1% v/v MSO) was 9 (2×) and 8, the “injury on a 0-9 point scale” value ([2]; maize T2, transgene L397D_F420M, 25 g ai/ha + 1% v/v MSO) was 0 (2×) and 3 and 1 and the “injury on a 0-9 point scale” value ([2]; maize T2, transgene L397D_F420M, 50 g ai/ha + 1% v/v MSO) was 0 (2×) and 1 (2×). The “injury on a 0-9 point scale” value ([2]; maize T2, transgene L397D_F420M, 100 g ai/ha + 1% v/v MSO) was 0 (3×) and 1, the “injury on a 0-9 point scale” value ([2]; maize T2, transgene L397D_F420M, 200 g ai/ha + 1% v/v MSO) was 0 (2×) and 2 and 1 and the “injury on a 0-9 point scale” value ([2]; maize T2, transgene L397E_F420M, 25 g ai/ha + 1% v/v MSO) was 9 (2×) and 2 and 0. For the same compound, the “injury on a 0-9 point scale” value ([2]; maize T2, transgene L397E_F420M, 50 g ai/ha + 1% v/v MSO) was 0 and 9 (2×) and 1, the “injury on a 0-9 point scale” value ([2]; maize T2, transgene L397E_F420M, 100 g ai/ha + 1% v/v MSO) was 4 and 1 and 0 and the “injury on a 0-9 point scale” value ([2]; maize T2, transgene L397E_F420M, 200 g ai/ha + 1% v/v MSO) was 0 and 6 (2×) and 5. For the same compound, the “injury on a 0-9 point scale” value ([2]; maize T2, transgene R128A_F420I, 25 g ai/ha + 1% v/v MSO) was 0 (2×) and 1 (2×), the “injury on a 0-9 point scale” value ([2]; maize T2, transgene R128A_F420I, 50 g ai/ha + 1% v/v MSO) was 2 and 1 (2×) and 0 and the “injury on a 0-9 point scale” value ([2]; maize T2, transgene R128A_F420I, 100 g ai/ha + 1% v/v MSO) was 0 (2×) and 1 (2×). The “injury on a 0-9 point scale” value ([2]; maize T2, transgene R128A_F420I, 200 g ai/ha + 1% v/v MSO) was 1 (3×) and 0, the “injury on a 0-9 point scale” value ([2]; maize, Non transgenic, 25 g ai/ha + 1% v/v MSO) was 8 and 9 (3×) and the “injury on a 0-9 point scale” value ([2]; maize, Non transgenic, 50 g ai/ha + 1% v/v MSO) was 9. The “injury on a 0-9 point scale” value ([2]; maize, Non transgenic, 100 g ai/ha + 1% v/v MSO) was 9 and the “injury on a 0-9 point scale” value ([2]; maize, Non transgenic, 200 g ai/ha + 1% v/v MSO) was 9.
